Experimental data: patent publication US9139575B2, “Broad spectrum antiviral and antiparasitic agents” (priority 2010, dated 2015)
Like-named read-outs stand apart in the source and are kept apart here.

Legend:
[1] = test system: NDV; assay: microbe, parasite or virus in culture; format: cell-based, Newcastle disease virus; settings: for IC50: read-out: IC50 ± STD (nM) (N = x) NDV
[2] = test system: Hela cells; assay: Cytotoxicity by MTT assay in dark or under light; format: cell-based; settings: Homo sapiens, exposed for 1 hour to light, MTT 24 hours later, read-out: concentration triggering death of 50% of treated cells
[3] = test system: lipid-enveloped viruses; assay: organism not typed; format: cell-based; settings: read-out: IC50 inhibition of infection of lipid-enveloped viruses
[4] = test system: cytomegalovirus (CMV, herpesvirus); format: cell-based
[5] = test system: Semliki forest virus (SFV, alphavirus); format: cell-based
[6] = Clinical observations after single dose in PK study; settings: for toxicity in vivo compared to the rhodanine derivatives: gavage, intravenous or intraperitoneal administration in mice
[7] = Pharmacokinetic profile after single po, ip or iv administration; settings: for bioavailability: female, Balb/c, mouse, plasma
[8] = test system: HIV; assay: Inhibition of HIV infection (Table 1); format: cell-based, human immunodeficiency virus
[9] = test system: HSV; assay: Inhibition of HSV infection (Table 1); format: cell-based, herpes simplex virus; settings: for IC50: read-out: IC50 ± STD (nM) (N = x) HSV
[10] = Absorption spectra of compounds in DMSO; format: physicochemical; settings: for Abs Max: 100 μM in DMSO; for Relative integrated area from 400 to 700 nm: area under absorption curve, JL001 = 100
[11] = KT rate constant (Table 1); format: physicochemical; settings: values are KT × 10^−7
[12] = test system: Toxoplasma gondii; assay: Toxoplasma gondii attachment and invasion of HFFs; format: cell-based; settings: 10 μM, normalized to DMSO control, preliminary
[13] = test system: HIV (IIIB); assay: HIV inactivation in packed red blood cells, TZM-BL luciferase readout; format: cell-based, human immunodeficiency virus; settings: 100 μM, 1 h white light, hematocrit 80%
[14] = test system: lipid-enveloped viruses; settings: reference [1], cited from earlier work
[15] = Human immunodeficiency virus 1, number of experiments in parentheses, read-out: IC50 ± STD (nM) (N = x) HIV
[16] = number of experiments in parentheses

With CCN1C(=S)O/C(=C\c2ccc(-c3ccccc3)o2)C1=S [JL102, (Z)-3-ethyl-5-((5-phenylfuran-2-yl)methylene)oxazolidine-2,4-dithione] the “EC50 fold lower than LJ001's” value [1] was “about 10 fold”, the EC50 [2] was roughly 400 nM and the IC50 [3] was roughly 40 nM. For the same molecule, the “inhibition of CMV infection” value [4] was “inhibit the infection”, the “inhibition of SFV infection” value [5] was “inhibit the infection” and the clinical observations ([6]; 10 mg/kg ip single dose) was “appeared normal”. For the same molecule, the “toxicity in vivo compared to the rhodanine derivatives” value [6] was “less toxicity”, the bioavailability ([7]; ip, 10 mg/kg) was roughly 50% and the bioavailability ([7]; po, 100 mg/kg) was 3.1 to 105%.
In the case of CCN1C(=S)O/C(=C\c2ccc(-c3ccccc3OC)o2)C1=S [JL103, (Z)-3-ethyl-5-((5-(2-methoxyphenyl)furan-2-yl)methylene)oxazolidine-2,4-dithione], the IC50 [8, 15] is reported as 3 nM, the IC50 [9, 16] is reported as 2.3 ± 2.7 nM and the “EC50 fold lower than compound 1's” value [1] is reported as “about 10 fold”. For the same molecule, the EC90 ([1]; avian paramyxovirus 1, Vero, read-out: EC90 antiviral activity on NDV) was roughly 15 nM, the IC50 ([1]; avian paramyxovirus 1, Vero) was 7 nM and the absorption peak [10] was “about 500 nm”. The “Abs Max” value [10] was 516 nm, the “Relative integrated area from 400 to 700 nm” value [10] was 153 and the “light absorbed relative to LJ001 (integrated area 400-700 nm)” value ([10]; times more than LJ001) was 1.53 times. For the same molecule, the “KT × 10^−7” value [11] was 7.8 ± 0.6 M^−1s^−1, the IC50 [3] was roughly 5 nM and the “inhibition of CMV infection” value [4] was “inhibit the infection”. The “inhibition of SFV infection” value [5] was “inhibit the infection”, the “inhibition of parasite attachment and invasion” value [12] was “inhibited parasite attachment and invasion” and the clinical observations ([6]; 10 mg/kg ip single dose) was “appeared normal”. For the same molecule, the “toxicity in vivo compared to the rhodanine derivatives” value [6] was “less toxicity”, the bioavailability ([7]; ip, 10 mg/kg) was roughly 50% and the bioavailability ([7]; po, 100 mg/kg) was 3.1 to 105%.
For CCN1C(=S)O/C(=C\c2ccc(-c3c(OC)cc(OC)cc3OC)o2)C1=S [JL122, (Z)-3-Ethyl-5-(5-(2,4,6-tiimethoxyphenyl)-furan-2-ylmethylene)oxazolidine-2,4-dithione], the IC50 [9, 16] was 3 ± 1 nM, the IC50 ([1]; avian paramyxovirus 1, Vero) was 1 nM and the “Abs Max” value [10] was 547 nm. The “HIV inactivation in packed RBC (luciferase activity, RLU)” value [13] was “dramatically decrease the luciferase activity to near-background levels”.
For CCN1C(=S)O/C(=C\c2ccc(-c3cccc(OC)c3)o2)C1=S [JL117, (Z)-3-Ethyl-5-(5-(3-methoxyphenyl)-furan-2-ylmethylene)oxazolidine-2,4-dithione], the IC50 [9, 16] was 20 nM, the IC50 ([1]; avian paramyxovirus 1, Vero) was 5 nM and the “Abs Max” value [10] was 504 nm.
For CCN1C(=S)O/C(=C\c2ccc(-c3c(OC)cccc3OC)o2)C1=S [JL111, (Z)-3-Ethyl-5-(5-(2,6-dimethoxyphenyl)-furan-2-ylmethylene)oxazolidine-2,4-dithione], the IC50 ([1]; avian paramyxovirus 1, Vero) was 12 nM and the “Abs Max” value [10] was 499 nm.
In the case of C=CCN1C(=O)/C(=C/c2ccc(-c3ccccc3)o2)SC1=S [LJ001, reference compound], the IC50 ([8]; Human immunodeficiency virus 1, read-out: IC50 ± STD (nM) (N = x) HIV) is reported as 183 ± 272 nM, the IC50 [9] is reported as 35 ± 48 nM and the IC50 ([1]; avian paramyxovirus 1, Vero) is reported as 207 nM. The absorption peak [10] was “about 440 nm”, the “Abs Max” value [10] was 457 nm and the “Relative integrated area from 400 to 700 nm” value [10] was 100. The “KT × 10^−7” value [11] was 1.0 ± 0.1 M^−1s^−1, the “HIV inactivation in packed RBC (luciferase activity, RLU)” value [13] was “unable to inactivate HIV” and the “inhibition of parasite attachment and invasion” value [12] was “highly effective”. For the same molecule, the “IC95 viral infection common for all viruses tested” value [14] was roughly 10000 nM, the IC50 ([14]; read-out: IC50 viral infection common for all viruses tested) was roughly 1000 nM and the clinical observations ([6]; 5 mg/kg ip single dose) was “appeared normal”. The clinical observations ([6]; 10 mg/kg ip single dose) was 2 were sacrificed in moribund condition and 1 was found dead, the exposure ([7]; 10 mg/kg iv, 5 mg/kg ip, 10 and 100 mg/kg po) was “minimal exposure” and the elimination ([7]; mice, single dose) was roughly 700 mL/min/kg. The half-life ([7]; mice, single dose) was 12 min.
In the case of CCN1C(=O)S/C(=C\c2ccc(-c3ccccc3)o2)C1=O [JL025, reference compound], the “IC50 ± STD (nM) (N = x) HIV” value [8, 16] is reported as “Not active (4)”, the “IC50 ± STD (nM) (N = x) HSV” value [9, 16] is reported as “Not active (1)” and the “IC50 ± STD (nM) (N = x) NDV” value [1] is reported as “Not active (2)”. For the same molecule, the “Abs Max” value [10] was 405 nm.
For CCN1C(=O)O/C(=C\c2ccc(-c3ccccc3)o2)C1=O [JL121, (Z)-3-ethyl-5-((5-phenylfuran-2-yl)methylene)oxazolidine-2,4-dione], the “IC50 ± STD (nM) (N = x) HSV” value [9, 16] was “Not active (1)”, the IC50 ([1]; avian paramyxovirus 1, Vero) was greater than 500000 nM and the “KT × 10^−7” value [11] was 2.5 ± 0.2 M^−1s^−1.
CCN1C(=S)O/C(=C\c2cc3ccccc3o2)C1=S [JL113, (Z)-5-(benzofuran-2-ylmethylene)-3-ethyloxazolidine-2,4-dithione] gave an IC50 ([1]; avian paramyxovirus 1, Vero) of 865 nM.
Work on CCN1C(=O)/C(=C/c2ccc(-c3ccccc3)o2)OC1=S [JL101, (Z)-3-ethyl-5-((5-phenylfuran-2-yl)methylene)-2-thioxooxazolidine-4-one] yielded an IC50 [8, 15] greater than 1000 nM and an IC50 ([1]; avian paramyxovirus 1, Vero) greater than 1000 nM.
In the case of CCN1C(=S)O/C(=C\c2ccc(-c3ccc(OC)cc3)n2C)C1=S [JL119, (Z)-3-Ethyl-5-((5-(4-methoxyphenyl)-1-methyl-1H-pyrrole-2-yl)methylene)oxazolidine-2,4-dithione], the IC50 ([1]; avian paramyxovirus 1, Vero) is reported as 6 nM and the “Abs Max” value [10] is reported as 551 nm.
In the case of CCN1C(=S)N/C(=C\c2ccc(-c3ccccc3)o2)C1=S [JL105, (Z)-3-ethyl-5-((5-phenylfuran-2-yl)methylene)imidazolidine-2,4-dithione], the IC50 ([1]; avian paramyxovirus 1, Vero) is reported as greater than 100000 nM and the “Abs Max” value [10] is reported as 521 nm.
With Cc1c(C)c2c(c(C)c1O)CC[C@@](C)(CCC[C@H](C)CCC[C@H](C)CCCC(C)C)O2 [alpha-tocopherol, reference compound] the “effect of antioxidant on antiviral activity of JL103” value [1] was “blocks the antiviral activity”.
With CCN1C(=O)/C(=C/c2ccc(-c3ccccc3)o2)NC1=S [JL104, (Z)-3-ethyl-5-((5-phenylfuran-2-yl)methylene)-2-thioxoimidazolidin-4-one] the “IC50 ± STD (nM) (N = x) HIV” value [8, 16] was “Not active”, the IC50 [9, 16] was greater than 500000 nM and the IC50 ([1]; avian paramyxovirus 1, Vero) was greater than 500000 nM.
For CCN1C(=S)OC(Cc2ccc(-c3ccccc3)o2)C1=S (stereo not shown) [JL107], the IC50 ([1]; avian paramyxovirus 1, Vero) was 928 nM, the “inhibition of parasite attachment and invasion” value [12] was “most potent inhibition” and the “inhibition of parasite attachment and invasion” value ([12]; listed as 107) was “inhibited parasite attachment and invasion”.
With CCN1C(=S)O/C(=C\c2ccc(-c3ccc(N(C)C)cc3)n2C)C1=S [JL123] the IC50 [9, 16] was 75 ± 45 nM, the IC50 ([1]; avian paramyxovirus 1, Vero) was 49 nM and the “Abs Max” value [10] was 593 nm.
